Patent US7842806B2, “Pyridopyrimidone derivatives, preparation thereof, therapeutic use thereof” (sanofi-aventis, priority 2006, dated 2010)
Read-outs that look alike come from different tables or passages of the source.

Key:
K562 cells = assay: MTS cell proliferation and viability test, K562 leukemia line; type: cell-based, human; details: incubating for 72 hours, read-out: IC50 (concentration which results in a 50% loss of cell proliferation and viability)
Protocol: […]
(§1) The cell proliferation and viability were determined in a test using 3-(4,5-dimethylthiazol-2-yl)-5-(3-carboxymethoxyphenyl)-2-(4-sulfophenyl)-2H-tetrazolium (MTS) according to Fujishita T. et al., Oncology, 2003, 64 (4), 399-406. In this test, the mitochondrial ability of the living cells to convert MTS to a colored compound is measured after incubating for 72 hours a compound of formula (I) according to the invention. […]

MDA-MB231 cells = assay: MTS cell proliferation and viability test, MDA-MB231 breast cancer line; type: cell-based, human; details: incubating for 72 hours, read-out: IC50 (concentration which results in a 50% loss of cell proliferation and viability)
Protocol: […]
as §1

With Cn1c(=O)c(-c2c(Cl)cccc2Cl)cc2cnc(Nc3ccc4c(c3)OC(CN)O4)nc21 (racemic) [Example 1, (R/S)-2-[[2-(aminomethyl)-1,3-benzodioxol-5-yl]amino]-6-(2,6-dichlorophenyl)-8-methyl-8H-pyrido[2,3-d]pyrimidin-7-one] as the compound, how does the IC50 (K562 cells; Homo sapiens) read?
The IC50 was 0.003 µM.

Which IC50 (MDA-MB231 cells) does the source give for CNC(=O)C1COc2ccc(Nc3ncc4cc(-c5c(Cl)cccc5Cl)c(=O)n(C)c4n3)cc2O1 (racemic) [Example 8, (R/S)-N-methylamide of 7-[6-(2,6-dichlorophenyl)-8-methyl-7-oxo-7,8-dihydropyrido[2,3-d]pyrimidin-2-ylamino]-2,3-dihydrobenzo[1,4]dioxin-2-carboxylic acid] here?
The IC50 was 0.183 µM.

And the IC50 (K562 cells)?
The IC50 was 0.0205 µM.

For Cn1c(=O)c(-c2c(Cl)cccc2Cl)cc2cnc(Nc3ccc4c(c3)COC4)nc21 [Example 2, 6-(2,6-dichlorophenyl)-2-[(1,3-dihydro-5-iso-benzofuranyl)amino]-8-methyl-8H-pyrido[2,3-d]pyrimidin-7-one], which IC50 (MDA-MB231 cells) is on record?
Its IC50 is 0.01 µM.
